The values below are quoted from earlier work in patent US20150366189A1, “DRY MELT COATING PROCESS AND FORMULATION FOR VOLATILE COMPOUNDS” (AGROFRISH INC., priority 2013, published 2015).

For the data set the following is noted: enclosed space.

The structures appear in SMILES notation.

For `CC1=CC1` [Experiment 1-MCP, 1-Methylcyclopropene], the “concentration threshold above which 1-MCP is flammable” value was > 13,300 ppm.
